Results as given in patent EP2272817A1, “PAI-1 INHIBITOR” (Institute of Medicinal Molecular Design, Inc., priority 2008, dated 2009).
Like-named read-outs stand apart in the source and are kept apart here.

Biological target: recombinant human PAI-1 (Homo sapiens, UniProt P05121)
Test: biochemical
[1] = read-out: Inhibition Rate of PAI-1 Activity (%)
[2] = read-out: Inhibition Rate of PAI Activity (%)
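Further: PAI-1 preincubated with compound, then two-chain tPA added, residual tPA activity read with fluorogenic Pyr-Gly-Arg-MCA substrate after 30 min at room temperature.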

Sequence of recombinant human PAI-1 (P05121 24-402): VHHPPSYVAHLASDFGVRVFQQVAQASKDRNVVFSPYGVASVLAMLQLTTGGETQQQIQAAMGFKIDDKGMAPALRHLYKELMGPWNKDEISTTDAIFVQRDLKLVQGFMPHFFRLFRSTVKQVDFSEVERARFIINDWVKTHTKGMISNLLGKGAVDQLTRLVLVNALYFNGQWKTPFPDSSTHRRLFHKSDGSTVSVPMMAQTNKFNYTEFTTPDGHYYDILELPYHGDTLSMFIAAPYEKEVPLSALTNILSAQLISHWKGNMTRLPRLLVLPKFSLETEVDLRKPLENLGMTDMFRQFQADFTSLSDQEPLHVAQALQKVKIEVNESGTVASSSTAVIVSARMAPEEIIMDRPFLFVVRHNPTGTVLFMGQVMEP
Protocol: To this solution, 6 µl of 80 nM recombinant human PAI-1 (Molecular Innovations, Inc.) solution prepared with Tris buffer was added, and the plate was incubated for 5 minutes at room temperature. Furthermore, 30 µl of 800 IU/ml two-chain tPA (Activity Standard; American diagnostica, inc.) prepared with Tris buffer was added, and the mixed solution was incubated for 15 minutes at room temperature. Then, 30 µl of 400 µM fluorogenic substrate (Pyr-Gly-Arg-MCA; Peptide Institute, Inc.) for tPA prepared with Tris buffer was added and reacted for 30 minutes at room temperature.
50 mM Tris, 150 mM NaCl, 10 µg/ml BSA, 0.01 % Tween80 (SIGMA-ALDRICH Corporation)

| Structure (SMILES) | inhibition at 5 µM [1] | inhibition at 10 µM [1] | inhibition at 25 µM [1] | further results |
| --- | --- | --- | --- | --- |
| CC(C)(C)c1ccc(N(C(=O)C(=O)O)c2cccc(Oc3ccc(OC(F)(F)F)cc3)c2)cc1 [Compound 170] | 38% | 73% | 94% |  |
| O=C(O)CCc1cc(-c2ccc(OC(F)(F)F)cc2)ccc1Oc1ccc(OC(F)(F)F)cc1 [Compound 16] |  |  |  | inhibition at 5 µM [2]: 23%; inhibition at 10 µM [2]: 46%; inhibition at 25 µM [2]: 96% |
| CCCCc1ccc(CN(C(=O)C(=O)O)c2ccc(-c3ccc(OC(F)(F)F)cc3)cc2)cc1 [Compound 167] | 37% | 75% | 87% |  |
| CC(C)(C)c1ccc(-c2ccc(Oc3ccc(-c4ccc(OC(F)(F)F)cc4)cc3CCC(=O)O)c(CCC(=O)O)c2)cc1 [Compound 541] | 77% | 93% | > 99% |  |
| CC(C)(C)c1ccc(Oc2ccc(-c3ccc(OC(F)(F)F)cc3)cc2CCC(=O)O)c(CCC(=O)O)c1 [Compound 542] | 67% |  |  | inhibition at 0.5 µM [1]: 0%; inhibition at 1 µM [1]: 14% |
| O=C(O)C(=O)N(Cc1ccc(OC(F)(F)F)cc1)c1ccc(-c2ccccc2)cc1 [Compound 183] |  | 11% | 29% |  |
| CC(C)(C)c1ccc(CN(C(=O)C(=O)O)c2ccc(-c3ccc(OC(F)(F)F)cc3)c(C(F)(F)F)c2)cc1 [Compound 166] | 44% | 79% | 84% |  |
| CC(C)(C)c1ccc(-c2ccc(N(Cc3ccc(Cl)cc3)C(=O)C(=O)O)cc2)cc1 [Compound 204] | 58% | 85% | > 99% |  |
| CC(C)(C)c1ccc(CN(C(=O)C(=O)O)c2ccccc2-c2ccc(OC(F)(F)F)cc2)cc1 [Compound 148] | 17% | 55% | 98% |  |
| CC(C)(C)c1ccc(-c2ccc(Oc3ccc(-c4ccc(OC(F)(F)F)cc4)cc3/C=C/C(=O)O)c(CCC(=O)O)c2)cc1 [Compound 540] | 75% | 91% | 91% |  |
| CC(C)(C)c1ccc(CN(C(=O)C(=O)O)c2ccc(OCc3ccc(OC(F)(F)F)cc3)cc2)cc1 [Compound 616] | 49% | 83% | 96% |  |
| CCCCCOc1ccc(-c2ccc(OC(F)(F)F)cc2)cc1N(Cc1ccccc1)C(=O)C(=O)O [Compound 195] | 77% | 94% | 93% |  |
| Cc1cc(N(C)C)c(-c2ccc(OC(F)(F)F)cc2)cc1N(CCCCc1ccccc1)C(=O)C(=O)O [Compound 246] | 79% | 96% |  |  |
| CCCOc1ccc(N(CCCc2ccccc2)C(=O)C(=O)O)c(-c2ccc(OC(F)(F)F)cc2)c1 [Compound 232] | 52% | 82% | 96% |  |
| O=C(O)C(=O)N(Cc1ccc(-c2ccccc2)cc1)c1ccc(-c2ccc(OC(F)(F)F)cc2)cc1 [Compound 161] | 27% | 62% | > 99% |  |
| O=C(O)C(=O)N(Cc1ccccc1)c1ccc(Oc2ccc(OC(F)(F)F)cc2)cc1 [Compound 154] |  | 3% | 20% |  |
| O=C(O)C(=O)N(CCCc1ccccc1)c1ccc(-c2ccc(OC(F)(F)F)cc2)cc1 [Compound 224] | 29% | 53% | 86% |  |
| Cc1cc(-c2ccc(OC(F)(F)F)cc2)cc(/C=C/C(=O)O)c1OCc1ccc(C(C)(C)C)cc1 [Compound 83] | 27% | 46% | 56% |  |
| CCCCCOc1ccc(-c2ccc(OC(F)(F)F)cc2)cc1N(CCCCCc1ccccc1)C(=O)C(=O)O [Compound 242] | 88% | 94% |  |  |
| COc1ccc(CN(C(=O)C(=O)O)c2ccc(-c3ccc(OC(F)(F)F)cc3)cc2)cc1 [Compound 131] |  | 10% | 34% |  |
| CC(C)(C)c1ccc(CN(C(=O)C(=O)O)c2ccc(-c3ccc(F)cc3)cc2)cc1 [Compound 127] | 21% | 43% |  |  |
| O=C(O)/C=C/c1c(Oc2ccc(OC(F)(F)F)cc2)cccc1Oc1ccc(OC(F)(F)F)cc1 [Compound 97] | 30% | 40% | 53% |  |
| O=C(O)C(=O)N(c1ccc(-c2ccc(OC(F)(F)F)cc2)cc1)C1CCCCC1 [Compound 253] | 9% | 16% | 36% |  |
| CC(C)(C)c1ccc(COc2ccc(OCc3ccc(OC(F)(F)F)cc3)cc2/C=C/C(=O)O)cc1 [Compound 413] | 38% | 66% | 84% |  |
| CC(C)(C)c1ccc(-c2ccc(N(Cc3ccccc3)C(=O)C(=O)O)cc2)cc1 [Compound 156] | 10% | 25% | 67% |  |
| Cc1ccc(N(Cc2ccc(C(C)(C)C)cc2)C(=O)C(=O)O)cc1Oc1ccc(OC(F)(F)F)cc1 [Compound 187] | 75% | 92% | 88% |  |

| Structure (SMILES) | inhibition at 5 µM [1] | inhibition at 10 µM [1] | inhibition at 25 µM [1] | further results |
| --- | --- | --- | --- | --- |
| CC(C)(C)c1ccc(COc2ccc(-c3ccc(OC(F)(F)F)cc3)cc2OCc2nn[nH]n2)cc1 [Compound 122] | 29% | 63% | 99% |  |
| O=C(O)CCc1cc(-c2ccc(OC(F)(F)F)cc2)ccc1OCc1ccc(-c2ccccc2)cc1 [Compound 29] |  |  |  | inhibition at 5 µM [2]: 21%; inhibition at 10 µM [2]: 56%; inhibition at 25 µM [2]: 88% |
| Cc1cc(C)cc(COc2ccc(-c3ccc(OC(F)(F)F)cc3)cc2CC(=O)O)c1 [Compound 11] |  |  |  | inhibition at 5 µM [2]: 41%; inhibition at 10 µM [2]: 84%; inhibition at 25 µM [2]: 99% |
| CC(C)(C)c1ccc(CN(C(=O)C(=O)O)c2ccc(SCc3ccc(OC(F)(F)F)cc3)cc2)cc1 [Compound 630] | 56% | 89% | 88% |  |
| Cc1ccc(-c2ccc(OC(F)(F)F)cc2)cc1N(Cc1ccc(C(C)(C)C)cc1)C(=O)C(=O)O [Compound 136] | 16% | 47% | 79% |  |
| CCCCc1ccc(-c2ccc(N(Cc3ccc(C(C)(C)C)cc3)C(=O)C(=O)O)cc2)cc1 [Compound 164] | 40% | 79% | 96% |  |
| CC(C)(C)c1ccc(CN(C(=O)C(=O)O)c2ccc(-c3ccc(C#N)cc3)cc2)cc1 [Compound 149] |  | 3% | 34% |  |
| CCC(CC)Oc1ccc(N(Cc2ccc(C(C)(C)C)cc2)C(=O)C(=O)O)c(-c2ccc(OC(F)(F)F)cc2)c1 [Compound 207] | 79% | 90% |  |  |
| O=C(O)C(=O)N(CCCCc1ccccc1)c1ccc(-c2ccc(OC(F)(F)F)cc2)cc1 [Compound 225] | 27% | 50% | 88% |  |
| CN(c1ccc(OC(F)(F)F)cc1)c1ccc(OCc2ccc(C(C)(C)C)cc2)c(CCC(=O)O)c1 [Compound 417] | 44% | 79% | 98% |  |
| Cc1cc(-c2ccc(OC(F)(F)F)cc2)cc(CCC(=O)O)c1OCc1ccc(C(C)(C)C)cc1 [Compound 84] | 28% | 62% | 95% |  |
| O=C(O)C(=O)N(Cc1c(Cl)cccc1Cl)c1ccc(-c2ccc(OC(F)(F)F)cc2)cc1 [Compound 171] | 22% | 44% | 81% |  |
| CC(C)c1ccc(Oc2ccc(/C=C\C(=O)O)c(Oc3ccc(C(C)C)cc3)c2)cc1 [Compound 74] | 13% | 53% | 96% |  |
| CC(C)(C)c1ccc(COc2ccc(Nc3ccc(OC(F)(F)F)cc3)cc2CCC(=O)O)cc1 [Compound 412] | 22% | 46% | 92% |  |
| CC(C)(C)c1ccc(CN(C(=O)C(=O)O)c2ccc(Nc3ccc(OC(F)(F)F)cc3)cc2)cc1 [Compound 626] | 42% | 77% | 97% |  |
| CC(C)(C)c1ccc(CN(C(=O)C(=O)O)c2ccc(Oc3ccc(OC(F)(F)F)cc3)cc2)cc1 [Compound 132] |  | 32% | 82% |  |
| CC(C)(C)c1ccc(COc2cc(CCC(=O)O)cc(Oc3ccc(OC(F)(F)F)cc3)c2)cc1 [Compound 410] | 37% | 71% | 98% |  |
| Cc1ccc(-c2cccc([N+](=O)[O-])c2)cc1N(Cc1ccc(C(C)(C)C)cc1)C(=O)C(=O)O [Compound 138] |  | 4% | 61% |  |
| Cc1ccc(COc2ccc(-c3ccc(OC(F)(F)F)cc3)cc2CCC(=O)O)cc1 [Compound 61] |  |  |  | inhibition at 5 µM [2]: 21%; inhibition at 10 µM [2]: 48%; inhibition at 25 µM [2]: 97% |
| COc1cc(-c2ccc(OC(F)(F)F)cc2)cc(CCC(=O)O)c1OCc1ccc(C(C)(C)C)cc1 [Compound 82] | 26% | 59% | 98% |  |
| CC(C)(Oc1ccc(-c2ccc(OC(F)(F)F)cc2)cc1Oc1ccc(C(C)(C)C)cc1)C(=O)O [Compound 110] | 37% | 51% | 83% |  |
| CC(c1ccc(C(C)(C)C)cc1)N(C(=O)C(=O)O)c1ccc(-c2ccc(OC(F)(F)F)cc2)cc1 (stereo not drawn) [Compound 220] | 51% | 86% | 89% |  |
| Cc1ccc(CN(C(=O)C(=O)O)c2ccc(-c3ccc(OC(F)(F)F)cc3)cc2)cc1 [Compound 143] |  | 1% | 22% |  |
| CC(C)c1ccc(Oc2ccc(/C=C/C(=O)O)c(Oc3ccc(C(C)C)cc3)c2)cc1 [Compound 72] | 32% | 72% | 98% |  |
| CCCCCCOc1ccc(-c2ccc(OC(F)(F)F)cc2)cc1N(CCCCc1ccccc1)C(=O)C(=O)O [Compound 245] | 93% | 97% |  |  |
